Assay results as given in patent US10681909B2, “Herbicidal triazoles” (FMC Corporation, priority 2014, dated 2020).

Legend:
ragweed [1] = experiment: Test A postemergence; assay type: in vivo, Ambrosia elatior; conditions: 0 to 100 scale (0 no effect, 100 complete control), approx. 10 d
Source text: (§1) Seeds of plant species selected from barnyardgrass (Echinochloa crus-galli), crabgrass, large (large crabgrass, Digitaria sanguinalis), kochia (Kochia scoparia), ragweed (common ragweed, Ambrosia elatior), foxtail, giant (giant foxtail, Setaria faberii), morningglory (Ipomoea spp.), pigweed (Amaranthus retroflexus), velvetleaf (Abutilon theophrasti), ryegrass, Italian (Italian ryegrass, Lolium multiflorum), wheat (Triticum aestivum), and corn (Zea mays) were planted into a blend of loam soil and sand and treated preemergence with a directed soil spray using test chemicals formulated in a non-phytotoxic solvent mixture which included a surfactant.
(§2) At the same time, plants selected from these crop and weed species and also blackgrass (Alopecurus myosuroides), and galium (catchweed bedstraw, Galium aparine), were planted in pots containing the same blend of loam soil and sand and treated with postemergence applications of test chemicals formulated in the same manner. Plants ranged in height from 2 to 10 cm and were in the one- to two-leaf stage for the postemergence treatment. Treated plants and untreated controls were maintained in a greenhouse for approximately 10 d, after which time all treated plants were compared to untreated controls and visually evaluated for injury. Plant response ratings, summarized in Table A, are based on a 0 to 100 scale where 0 is no effect and 100 is complete control. A dash (-) response means no test result.

galium = experiment: Test A postemergence; assay type: in vivo, Galium aparine; conditions: 0 to 100 scale (0 no effect, 100 complete control), approx. 10 d
Source text: as §1, §2

kochia = experiment: Test A postemergence; assay type: in vivo, Kochia scoparia; conditions: 0 to 100 scale (0 no effect, 100 complete control), approx. 10 d
Source text: as §1, §2

ragweed [2] = experiment: Test C preemergence; assay type: in vivo, Ambrosia elatior; conditions: for Ragweed plant response rating (0 to 100): Preemergence, visual rating after 13 to 15 d; for Plant response rating (scale of 0 to 100 where 0 is no effect and 100 is complete control): Ragweed, preemergence
Source text: Seeds of plant species selected from blackgrass (Alopecurus myosuroides), ryegrass, Italian (Italian ryegrass, Lolium multiflorum), wheat (winter wheat, Triticum aestivum), galium (catchweed bedstraw, Galium aparine), corn (Zea mays), crabgrass, large (large crabgrass, Digitaria sanguinalis), foxtail, giant, (giant foxtail, Setaria faberii), johnsongrass (Sorghum halepense), lambsquarters (Chenopodium album), morningglory (Ipomoea coccinea), nutsedge, yellow (yellow nutsedge, Cyperus esculentus), pigweed (Amaranthus retroflexus), ragweed (common ragweed, Ambrosia elatior), soybean (Glycine max), barnyardgrass (Echinochloa crus-galli), oilseed rape (Brassica napus), waterhemp (common waterhemp, Amaranthus rudis), and velvetleaf (Abutilon theophrasti) were planted into a blend of loam soil and sand and treated preemergence with test chemicals formulated in a non-phytotoxic solvent mixture which included a surfactant. At the same time, plants selected from these crop and weed species and also chickweed (common chickweed, Stellaria media), oat, wild (wild oat, Avena fatua), and kochia (Kochia scoparia), were planted in pots containing Sunshine Redi-Earth® planting medium comprising spaghnum peat moss, vermiculite, starter nutrients and dolomitic limestone and treated with postemergence applications of test chemicals formulated in the same manner. Plants ranged in height from 2 to 18 cm (1- to 4-leaf stage) for postemergence treatments. […] A dash (-) response means no test result.

crabgrass, large = experiment: Test A postemergence; assay type: in vivo, Digitaria sanguinalis; conditions: Digitaria sanguinalis, post-emergence, 240 h, 0 to 100 scale (0 no effect, 100 complete control), approx. 10 d, read-out: Plant response rating, Crabgrass, Large; for pest or weed control at 125 g/ha: 125 g ai/ha; for pest or weed control at 500 g/ha: 500 g ai/ha
Outline: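 For preemergence, seeds were sown in a loam soil-sand blend and given a directed soil spray of test chemical in a non-phytotoxic solvent mixture with surfactant. For postemergence, plants in pots of the same blend were sprayed with the same formulation at the one- to two-leaf stage, 2 to 10 cm tall.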

bluegrass = experiment: Test D preemergence; assay type: in vivo, Poa annua; conditions: scale 0 to 100
Source text: (§3) Seeds of plant species selected from bluegrass (annual bluegrass, Poa annua), blackgrass (Alopecurus myosuroides), canarygrass (Phalaris minor), chickweed (common chickweed, Stellaria media), galium (catchweed bedstraw, Galium aparine), bromegrass, down (downy bromegrass, Bromus tectorum), Russian thistle (Salsola kali), field poppy (Papaver rhoeas), field violet (Viola arvensis), foxtail, green (green foxtail, Setaria viridis), deadnettle (henbit deadnettle, Lamium amplexicaule), ryegrass, Ital. (Italian ryegrass, Lolium multiflorum), kochia (Kochia scoparia), lambsquarters (Chenopodium album), oilseed rape (Brassica napus), pigweed (Amaranthus retroflexus), chamomile (scentless chamomile, Matricaria inodora), speedwell (bird's-eye speedwell, Veronica persica), barley, spring (spring barley, Hordeum vulgare), wheat, spring (spring wheat, Triticum aestivum), buckwheat, wild (wild buckwheat, Polygonum convolvulus), wild mustard (Sinapis arvensis), oat, wild (wild oat, Avena fatua), radish, wild (wild radish, Raphanus raphanistrum), […]), barley, winter (winter barley, Hordeum vulgare), and wheat, winter (winter wheat, Triticum aestivum) were planted into a silt loam soil and treated preemergence with test chemicals formulated in a non-phytotoxic solvent mixture which included a surfactant. At the same time, these species were planted in pots containing Sunshine Redi-Earth® planting medium comprising spaghnum peat moss, vermiculite, starter nutrients and dolomitic limestone and treated with postemergence applications of the test chemicals formulated in the same manner. Plants ranged in height from 2 to 18 cm (1- to 4-leaf stage). Treated plants and controls were maintained in a controlled growth environment for 14 to 21 d after which time all species were compared to controls and visually evaluated. […] A dash (-) response means no test result.

foxtail, green = experiment: Test D preemergence; assay type: in vivo, Setaria viridis; conditions: scale 0 to 100
Source text: as §3

field poppy = experiment: Test D preemergence; assay type: in vivo, Papaver rhoeas; conditions: scale 0 to 100
Source text: as §3

wheat, spring = experiment: Test D preemergence; assay type: in vivo, Triticum aestivum; conditions: scale 0 to 100
Source text: as §3

wheat, winter = experiment: Test D preemergence; assay type: in vivo, Triticum aestivum; conditions: scale 0 to 100
Source text: as §3

| SMILES | Plant response rating, Ragweed (ragweed [1]; 125 g ai/ha) | Plant response rating, Galium (galium; 125 g ai/ha) | Plant response rating, Kochia (kochia; 125 g ai/ha) | Ragweed plant response rating (0 to 100) (ragweed [2]; 31 g ai/ha) | Ragweed plant response rating (0 to 100) (ragweed [2]; 62 g ai/ha) | Plant response rating (scale of 0 to 100 where 0 is no effect and 100 is complete control) (ragweed [2]; 125 g ai/ha) | Plant response rating (scale of 0 to 100 where 0 is no effect and 100 is complete control) (ragweed [2]; 250 g ai/ha) | pest or weed control at 125 g/ha (crabgrass, large) [%] | pest or weed control at 500 g/ha (crabgrass, large) [%] | also measured |
| --- | --- | --- | --- | --- | --- | --- | --- | --- | --- | --- |
| COc1nc(-c2ccc(C(F)(F)F)cc2)nn1Cc1ccnc(C(F)(F)F)c1 [Compound 25] | 30 | 80 | 90 |  |  |  |  |  |  | Plant response rating, Ragweed (ragweed [1]; 31 g ai/ha): 20; Plant response rating, Galium (galium; 31 g ai/ha): 60; Plant response rating, Kochia (kochia; 31 g ai/ha): 90 |
| COc1nc(-c2ccccc2)nn1Cc1ccnc(C(F)(F)F)c1 [Compound 32] | 30 | 60 | 80 | 0 | 5 | 10 | 65 |  |  | Plant response rating, Ragweed (ragweed [1]; 500 g ai/ha): 70; Plant response rating, Galium (galium; 500 g ai/ha): 90; Plant response rating, Kochia (kochia; 500 g ai/ha): 90 |
| CS(=O)(=O)c1nc(-c2ccc(F)cc2)nn1Cc1ccnc(C(F)(F)F)c1 [Compound 29, 4-[[3-(4-fluorophenyl)-5-(methylsulfonyl)-1H-1,2,4-triazole-1-yl]methyl]-2-(trifluoromethyl)pyridine] |  |  |  |  |  |  |  | 0 | 0 |  |
| CCc1nc(-c2ccc(C(F)(F)F)cc2)nn1Cc1ccnc(C(F)(F)F)c1 [Compound 1, 4-[[5-ethyl-3-[4-(trifluoromethyl)phenyl]-1H-1,2,4-triazol-1-yl]methyl]-2-(trifluoromethyl)pyridine] |  |  |  | 35 | 50 | 60 | 70 | 100 | 100 | Plant response rating: Bluegrass (bluegrass; 31 g ai/ha): 10; Plant response rating: Bluegrass (bluegrass; 62 g ai/ha): 35; Plant response rating: Bluegrass (bluegrass; 125 g ai/ha): 60; Plant response rating: Bluegrass (bluegrass; 250 g ai/ha): 100; Plant response rating: Foxtail, Green (foxtail, green; 62 g ai/ha): 100; Plant response rating: Foxtail, Green (foxtail, green; 125 g ai/ha): 100; Plant response rating: Foxtail, Green (foxtail, green; 250 g ai/ha): 100; Plant response rating: Field Poppy (field poppy; 62 g ai/ha): 100; Plant response rating: Field Poppy (field poppy; 125 g ai/ha): 100; Plant response rating: Field Poppy (field poppy; 250 g ai/ha): 100; Plant response rating: Wheat, Spring (wheat, spring; 62 g ai/ha): 0; Plant response rating: Wheat, Spring (wheat, spring; 125 g ai/ha): 0; Plant response rating: Wheat, Spring (wheat, spring; 250 g ai/ha): 5; Plant response rating: Wheat, Winter (wheat, winter; 62 g ai/ha): 0; Plant response rating: Wheat, Winter (wheat, winter; 125 g ai/ha): 0; Plant response rating: Wheat, Winter (wheat, winter; 250 g ai/ha): 0 |
| Cn1nc(-c2ccc(F)cc2)nc1Oc1cccc(C(F)(F)F)c1 [Compound 5, 3-(4-fluorophenyl)-1-methyl-5-[3-(trifluoromethyl)phenoxy]-1H-1,2,4-triazole] |  |  |  |  |  |  |  | 30 | 90 |  |
| CCn1nc(-c2ccc(F)cc2)nc1C(=O)c1ccnc(C(F)(F)F)c1 [Compound 19, [1-ethyl-3-(4-fluorophenyl)-1H-1,2,4-triazol-5-yl][2-(trifluoromethyl)-4-pyridinyl]methanone] |  |  |  |  |  |  |  | 0 | 0 |  |
| CCCn1nc(-c2ccc(F)cc2)nc1Cc1ccnc(C(F)(F)F)c1 [Compound 17, 4-[[3-(4-fluorophenyl)-1-propyl-1H-1,2,4-triazol-5-yl]methyl]-2-(trifluoromethyl)pyridine] |  |  |  |  |  |  |  | 90 | 90 |  |
| CCn1nc(-c2ccc(F)cc2)nc1C(O)c1ccnc(C(F)(F)F)c1 (stereo not drawn) [Compound 15, α-[1-Ethyl-3-(4-fluorophenyl)-1H-1,2,4-triazol-5-yl]-2-(trifluoromethyl)-4-pyridinemethanol] |  |  |  |  |  |  |  | 0 | 10 |  |
| COc1nc(-c2ccc(F)cc2)nn1Cc1ccnc(C(F)(F)F)c1 [Compound 9, 4-[[3-(4-fluorophenyl)-5-methoxy-1H-1,2,4-triazol-1-yl]methyl]-2-(trifluoromethyl)pyridine] |  |  |  | 25 | 60 | 60 | 85 | 90 | 100 |  |
| CCCOc1nc(-c2ccccc2)nn1Cc1ccnc(C(F)(F)F)c1 [Compound 33] | 30 | 70 | 90 |  |  |  |  |  |  | Plant response rating, Ragweed (ragweed [1]; 500 g ai/ha): 50; Plant response rating, Galium (galium; 500 g ai/ha): 80; Plant response rating, Kochia (kochia; 500 g ai/ha): 90 |
| Cn1nc(-c2ccc(F)cc2)nc1C(O)c1ccnc(C(F)(F)F)c1 (stereo not drawn) [Compound 14, α-[3-(4-fluorophenyl)-1-methyl-1H-1,2,4-triazol-5-yl]-2-(trifluoromethyl)-4-pyridinemethanol] |  |  |  |  |  |  |  | 20 | 30 |  |
| CCOc1nc(-c2ccc(Cl)cc2)nn1Cc1ccnc(C(F)(F)F)c1 [Compound 26] | 50 | 90 | 90 |  |  |  |  |  |  | Plant response rating, Ragweed (ragweed [1]; 31 g ai/ha): 30; Plant response rating, Galium (galium; 31 g ai/ha): 60; Plant response rating, Kochia (kochia; 31 g ai/ha): 80 |
| CCCc1nc(-c2ccc(F)cc2)nn1Cc1ccnc(C(F)(F)F)c1 [Compound 6, 4-[[3-(4-fluorophenyl)-5-propyl-1H-1,2,4-triazol-1-yl]methyl]-2-(trifluoromethyl)pyridine] |  |  |  | 20 | 20 | 55 | 80 | 90 | 90 |  |
